Patent publication US20240051937A1, “ISOINDOLINONE AMIDE COMPOUNDS USEFUL TO TREAT DISEASES ASSOCIATED WITH GSPT1” (Monte Rosa Therapeutics, Inc., priority 2021, published 2024)
Like-named read-outs stand apart in the source and are kept apart here.

Legend:
Format in all cases: cell-based
[1] = target: T1, ZFP91 (Homo sapiens, UniProt Q96JP5+Q96SW2); experiment: Selectivity determination by Western blot assay in MM1S cells: ZFP91; details: MM1S cells, 0.3, 3 and 30 μM, 6 hours
T1 construct: MM1S cells were purchased from ATCC (cat. Number CRL-2974); host or cells: MM1S cells
Method: (§1) MM1S cells were purchased from ATCC (cat. Number CRL-2974), sub-cultured in […] RPMI 1640 with 10% FBS, supplemented with Ix P/S and incubated at 37° C., […]. Compounds were stored as 10 mM DMSO stock. For the assay, MM1S cells (3 million cells/well) were plated in 6-well plates and incubated over night. Cells were treated with respective compounds using a serial dilution: 0.3 μM, 3 μM and 30 μM as well as a vehicle only (DMSO) control for 6 hours. Media with suspension cells was subsequently transferred to 15 mL conical tubes, wells rinsed twice with ice-cold PBS and merged with cell suspension in respective 15 mL conical tube. Cells were spinned down, supernatant aspirated, pellets resuspended in ice-cold PBS and transferred to microtubes. Cells were spinned down, supernatant aspirated and pellets resuspended in 120 μL RIPA lysis buffer supplemented with protease and phosphatase inhibitors. Cell lysates were incubated on ice for 20 minutes followed by centrifugation at >20,000×g for 5 min. Supernatants were transferred to fresh microtubes and stored at −80° C. Total protein concentration was determined using a BCA assay with a BSA standard curve and concentration of all samples was adjusted to 1 mg/mL. […] Chemiluminescence signals were then detected using a LAS-4000 system with default settings and signals quantified using Image Studio Lite software (version 5.2). […]

[2] = target: T2, GSPT1 (Homo sapiens, UniProt P15170+Q96SW2); experiment: Selectivity determination by Western blot assay in MM1S cells: GSPT1; design: MM1S cells were purchased from ATCC (cat. Number CRL-2974); host or cells: MM1S cells; details: MM1S cells, 0.3, 3 and 30 μM, 6 hours
Method: as §1

[3] = target: T2, GSPT1; experiment: Immunofluorescence assay for GSPT1 degradation in CAL-Si cells; design: CAL-Si cells were purchased from DSMZ (cat. Number ACC302); host or cells: CAL-Si (CAL-51) cells; details: 6 hours treatment
Outline: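 CAL-Si cells exposed 6 h to compound serial dilutions (30 μM to 0.1 nM), then fixed and immunostained for GSPT1 with DAPI/phalloidin counterstain. Per-cell mean GSPT1 fluorescence from high-content imaging, normalized to controls; DC50 by non-linear regression.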

[4] = read-out: Code: activity for GSPT1 degradation (DC50)
[5] = GSPT1 degradation, read-out: DC50

T2 sequence (P15170 whole entry): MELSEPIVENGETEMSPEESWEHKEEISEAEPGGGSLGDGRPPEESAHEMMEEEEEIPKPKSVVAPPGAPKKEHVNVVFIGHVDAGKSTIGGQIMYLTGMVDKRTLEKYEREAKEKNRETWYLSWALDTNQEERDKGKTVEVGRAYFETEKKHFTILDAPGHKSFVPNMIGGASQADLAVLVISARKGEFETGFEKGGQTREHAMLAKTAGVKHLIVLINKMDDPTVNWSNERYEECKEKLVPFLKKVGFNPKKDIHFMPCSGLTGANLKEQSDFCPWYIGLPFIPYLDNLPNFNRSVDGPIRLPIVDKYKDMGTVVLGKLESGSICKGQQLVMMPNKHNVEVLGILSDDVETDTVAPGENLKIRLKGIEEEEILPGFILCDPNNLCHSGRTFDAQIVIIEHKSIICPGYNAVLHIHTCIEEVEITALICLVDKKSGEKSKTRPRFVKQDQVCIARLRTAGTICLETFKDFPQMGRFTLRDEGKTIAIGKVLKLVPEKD
T2 sequence (Q96SW2 whole entry): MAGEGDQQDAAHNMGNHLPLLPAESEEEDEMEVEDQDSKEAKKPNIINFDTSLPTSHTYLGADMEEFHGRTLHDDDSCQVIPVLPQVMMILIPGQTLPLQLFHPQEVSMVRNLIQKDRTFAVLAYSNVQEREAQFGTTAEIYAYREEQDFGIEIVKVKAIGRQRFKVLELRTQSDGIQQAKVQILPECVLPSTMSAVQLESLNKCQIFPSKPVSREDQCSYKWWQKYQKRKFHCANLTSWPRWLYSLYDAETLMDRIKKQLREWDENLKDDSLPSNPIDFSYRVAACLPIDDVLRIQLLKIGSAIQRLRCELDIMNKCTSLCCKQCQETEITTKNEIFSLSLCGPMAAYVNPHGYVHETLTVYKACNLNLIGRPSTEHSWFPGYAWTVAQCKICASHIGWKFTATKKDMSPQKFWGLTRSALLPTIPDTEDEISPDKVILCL
T2 sequence (Q16531 whole entry partner): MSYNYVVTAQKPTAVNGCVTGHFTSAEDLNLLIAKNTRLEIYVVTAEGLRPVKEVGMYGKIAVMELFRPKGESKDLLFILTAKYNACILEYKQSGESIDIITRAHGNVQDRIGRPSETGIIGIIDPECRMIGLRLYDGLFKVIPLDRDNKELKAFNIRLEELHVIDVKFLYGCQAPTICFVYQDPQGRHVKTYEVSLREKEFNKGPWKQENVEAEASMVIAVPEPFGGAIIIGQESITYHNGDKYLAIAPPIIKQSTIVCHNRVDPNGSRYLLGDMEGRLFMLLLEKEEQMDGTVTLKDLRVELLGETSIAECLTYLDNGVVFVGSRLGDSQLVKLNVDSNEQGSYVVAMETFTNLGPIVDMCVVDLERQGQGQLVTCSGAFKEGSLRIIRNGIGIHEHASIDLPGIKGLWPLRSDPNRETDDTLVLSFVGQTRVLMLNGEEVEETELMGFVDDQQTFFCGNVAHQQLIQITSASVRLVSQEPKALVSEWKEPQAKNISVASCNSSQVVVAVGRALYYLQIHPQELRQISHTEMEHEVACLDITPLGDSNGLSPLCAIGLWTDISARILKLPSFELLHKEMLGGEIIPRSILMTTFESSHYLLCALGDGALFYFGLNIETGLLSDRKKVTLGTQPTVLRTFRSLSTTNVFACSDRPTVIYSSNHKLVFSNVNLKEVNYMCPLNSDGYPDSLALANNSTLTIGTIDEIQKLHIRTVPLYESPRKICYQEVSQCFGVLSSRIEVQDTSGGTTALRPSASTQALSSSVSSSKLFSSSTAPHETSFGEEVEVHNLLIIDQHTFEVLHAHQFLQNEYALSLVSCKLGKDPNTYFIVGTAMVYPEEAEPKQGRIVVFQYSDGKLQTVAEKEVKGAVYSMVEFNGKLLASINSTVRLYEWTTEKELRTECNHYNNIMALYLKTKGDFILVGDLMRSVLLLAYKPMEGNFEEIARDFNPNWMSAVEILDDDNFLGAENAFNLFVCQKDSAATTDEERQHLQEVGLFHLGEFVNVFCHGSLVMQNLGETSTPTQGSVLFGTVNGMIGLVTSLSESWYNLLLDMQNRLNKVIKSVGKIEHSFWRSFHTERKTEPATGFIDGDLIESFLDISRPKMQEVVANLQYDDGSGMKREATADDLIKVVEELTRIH
T1 sequence (Q96JP5 2-570 limits assumed): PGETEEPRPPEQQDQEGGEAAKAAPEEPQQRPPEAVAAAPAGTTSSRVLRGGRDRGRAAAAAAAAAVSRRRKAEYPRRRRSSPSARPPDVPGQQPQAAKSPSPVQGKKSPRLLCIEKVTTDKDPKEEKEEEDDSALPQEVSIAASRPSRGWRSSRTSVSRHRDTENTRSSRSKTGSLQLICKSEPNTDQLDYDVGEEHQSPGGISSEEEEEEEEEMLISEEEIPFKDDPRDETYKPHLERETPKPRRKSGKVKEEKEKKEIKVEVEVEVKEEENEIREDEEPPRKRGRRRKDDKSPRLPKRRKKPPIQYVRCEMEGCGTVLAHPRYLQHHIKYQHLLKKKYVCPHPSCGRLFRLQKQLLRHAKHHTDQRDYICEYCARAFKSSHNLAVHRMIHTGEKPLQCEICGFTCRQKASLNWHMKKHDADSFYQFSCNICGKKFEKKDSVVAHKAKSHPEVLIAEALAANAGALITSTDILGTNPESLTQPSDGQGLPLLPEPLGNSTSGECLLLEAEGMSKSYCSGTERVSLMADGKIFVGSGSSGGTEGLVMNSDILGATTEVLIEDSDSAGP
T1 sequence (Q96SW2 whole entry): as the sequence (Q96SW2 whole entry) above
T1 sequence (Q16531 whole entry partner): as the sequence (Q16531 whole entry partner) above

Row | Compound | ZFP91 degradation code [1] | GSPT1 degradation code [2] | DC50 [3, 4] [nM] | DC50 [3, 5] [nM]
1 | Cc1ccc(NC(=O)CCc2ccc3c(c2)C(=O)N(C2CCC(=O)NC2=O)C3)cc1Cl (centres unmarked) [Compound 1] | B (B represents trace degradation at 30 μM (below 20%)) | F (F represents degradation at 0.3 μM (>90%)) | ≤ 30 | 16
2 | Cc1c(Cl)cc(NC(=O)CCc2ccc3c(c2)C(=O)N(C2CCC(=O)NC2=O)C3)cc1CN1CCOCC1 (centres unmarked) [Compound 2] | C (C represents weak degradation at 30 μM (below 50%)) | F (F represents degradation at 0.3 μM (>90%)) | ≤ 30 | 6
